Measured values from patent US20250115628A1, “FLUORINATED FLUOROPHORES” (HOWARD HUGHES MEDICAL INSTITUTE, priority 2023, published 2025).
Where two headings read alike, the source gives them in different places.

Experiments:
[1] = rhodamine derivatives; 10 mM HEPES, pH 7.3; data from the inventors' published work; cited from earlier work
[2] = rhodamine derivatives; 10 mM HEPES, pH 7.3; data from the inventors' published work; cited from earlier work; remark: listed apart in the source
[3] = Quantum yield determination; assay type: physicochemical
Method: All reported absolute fluorescence quantum yield values (Φf) were measured using a Quantaurus-QY spectrometer (model C11374, Hamamatsu). This instrument uses an integrating sphere to determine photons absorbed and emitted by a sample. Measurements were carried out using dilute samples (A<0.1), and self-absorption corrections were performed using the instrument software.^81

[4] = pKa determination (absorbance vs. pH); conditions: for ηH: Hill coefficient from pH titration data; for pKa: aqueous buffer solutions
Method: For pH 2.0-4.0, the McIlvaine citrate/phosphate buffer system was used. For other pH ranges dye absorbance was measured in buffers containing 150 mM NaCl and 10 mM buffer using the following systems: citrate (pH 4.0-6.0), phosphate (pH 5.8-8.0); tris (pH 7.8-9.0); carbonate (pH 9.2-10.0). Buffer solutions containing 5 M of each fluorophore were prepared (36 samples in duplicate from pH 4.0-10.0 for 51, 53, and 60; 48 samples in duplicate from pH 2.0-10.0 for 76 and 77). Absorbance values were recorded on a Cary Model 100 spectrometer and plotted using GraphPad Prism software. The points were fitted to a sigmoidal dose response curve with a variable slope to determine the Hill coefficient (ηH).

[5] = General UV-vis and fluorescence spectroscopy; assay type: physicochemical
Method: Spectroscopy was performed using 1^−cm path length, 3.5^−mL quartz cuvettes or 1^−cm path length, 1.4^−mL semi-micro quartz cuvettes from Starna Cells. All measurements were taken at ambient temperature (22±2° C.). Absorption spectra were recorded on a Cary Model 100 spectrometer (Agilent), and fluorescence spectra were recorded on a Cary Eclipse fluorometer (Varian). The spectra, maximum absorption wavelength (labs), extinction coefficient at λabs (8), and maximum emission wavelength (em) were measured in 10 mM HEPES, pH 7.3 buffer (rhodamines and Malachite Green derivative 49) or 0.1 M NaOH (fluoresceins); the reported values for e are averages (n=3). Normalized spectra are shown for clarity.

[6] = rhodamine derivatives; 1:1 dioxane:H2O; data from the inventors' published work; cited from earlier work
[7] = Determination of KL-Z (lactone-zwitterion equilibrium constant); assay type: physicochemical; parameters: key: KL-Z = (εdw/εmax)/(1−εdw/εmax); εdw measured in 1:1 dioxane/water; conditions: 1:1 dioxane:H2O
Method: KL-Z was calculated using the following equation:^16, 18 KL-Z=(εdw/εmax)/(1−εdw/εmax). εdw is the extinction coefficient of the dyes in a 1:1 (v/v) dioxane/water solvent mixture; this dioxane/water mixture was chosen to give the maximum spread of KL-Z values across all classes of rhodamines.^18 εmax refers to the maximal extinction coefficients measured in different solvent mixtures empirically determined depending on dye type: 0.1% v/v trifluoroacetic acid in ethanol for 18, 20, 29, 34, 36, 70-72, 81-83, 93-95, 99-102, and 104; 0.1% v/v trifluoroacetic acid in 2,2,2^−trifluoroethanol for all other rhodamine variants. A accurate determination of low KL-Z values is complicated by the relatively poor sensitivity of absorbance measurements.

[8] = fluorescein derivatives, 0.1 N NaOH
[9] = quinolinyl rhodamines, 10 mM HEPES, pH 7.3
[10] = rhodamine derivatives, 10 mM HEPES, pH 7.3

| Compound | Φf [1] | ε [2] | λabs [2] [nm] | λem [2] [nm] | Φf [3, 8] | ηH [4] | ε [5, 8] | λabs [5, 8] [nm] | λem [5, 8] [nm] | KL-Z [6] | further results |
| --- | --- | --- | --- | --- | --- | --- | --- | --- | --- | --- | --- |
| C[Si]1(C)c2cc(N3CCC3)ccc2C2(OC(=O)c3ccccc32)c2ccc(N3CCC3)cc21 [compound 1, JF646] | 0.54 | 5,600 M^−1cm^−1 | 646 | 664 |  |  |  |  |  |  |  |
| CC1(C)C2=CC(=O)C=CC2=C(c2c(F)c(F)c(F)c(F)c2C(=O)O)c2ccc(O)cc21 [compound 51, 4,5,6,7^−Tetrafluoro-carbofluorescein] |  |  |  |  | 0.54 | 1.02 | 96,700 M^−1cm^−1 | 564 | 585 |  | pKa [4]: 6.86 |
| CC1(C)C2=CC(=O)C(F)=CC2=C(c2c(F)c(F)c(F)c(F)c2C(=O)O)c2cc(F)c(O)cc21 [compound 53, 2′,4,5,6,7,7′-Hexafluorocarbofluorescein] |  |  |  |  | 0.29 | 1.00 | 91,100 M^−1cm^−1 | 576 | 599 |  | pKa [4]: 5.47 |
| C[Si]1(C)C2=CC(=O)C=CC2=C(c2c(F)c(F)c(F)c(F)c2C(=O)O)c2ccc(O)cc21 [compound 55, 4,5,6,7^−Tetrafluoro-Si-fluorescein] |  |  |  |  | 0.50 | 1.23 | 84,100 M^−1cm^−1 | 598 | 614 |  | pKa [4]: 7.08 |
| O=C1OC2(c3ccc(O)cc3Oc3cc(O)ccc32)c2c(F)c(F)c(F)c(F)c21 [compound 60, 4,5,6,7^−tetrafluorofluorescein, reference compound] |  |  |  |  | 0.85 | 0.92 | 85,600 M^−1cm^−1 | 508 | 527 |  |  |
| O=C1OC2(c3ccc(O)cc3Oc3cc(O)ccc32)c2ccccc21 [compound 73, reference compound] |  |  |  |  | 0.92 | 0.97 | 90,000 M^−1cm^−1 | 490 | 514 |  |  |
| O=C1OC2(c3cc(F)c(O)cc3Oc3cc(O)c(F)cc32)c2ccccc21 [compound 76, reference compound] |  |  |  |  | 0.97 | 0.98 | 82,400 M^−1cm^−1 | 490 | 514 |  |  |
| O=C1OC2(c3cc(F)c(O)cc3Oc3cc(O)c(F)cc32)c2c(F)c(F)c(F)c(F)c21 [compound 77, reference compound] |  |  |  |  | 0.18 | 1.00 | 81,200 M^−1cm^−1 | 508 | 527 |  |  |
| N=c1ccc2c(-c3ccccc3C(=O)O)c3ccc(N)cc3oc-2c1 [compound 81] | 0.88 | 75,000 M^−1cm^−1 | 487 | 520 |  |  |  |  |  | 2.53 |  |
| CC1(C)C2=CC(=N)C=CC2=C(c2ccccc2C(=O)O)c2ccc(N)cc21 [compound 82] | 0.64 | 65,000 M^−1cm^−1 | 552 | 577 |  |  |  |  |  | 0.0127 |  |
| C[Si]1(C)C2=CC(=N)C=CC2=C(c2ccccc2C(=O)O)c2ccc(N)cc21 [compound 83] | 0.53 | 2,200 M^−1cm^−1 | 587 | 609 |  |  |  |  |  |  |  |
| CC1(C)c2cc(N3CCC3)ccc2C2(OC(=O)c3ccccc32)c2ccc(N3CCC3)cc21 [compound 86, JF608] | 0.67 | 99,000 M^−1cm^−1 | 608 | 631 |  |  |  |  |  | 0.0911 |  |
| [2H]C1([2H])N(c2ccc3c(-c4ccccc4C(=O)[O-])c4ccc(=[N+]5C([2H])([2H])C([2H])([2H])C([2H])([2H])C5([2H])[2H])cc-4oc3c2)C([2H])([2H])C([2H])([2H])C1([2H])[2H] [compound 87] | 0.80 |  | 554 | 576 |  |  |  |  |  | 4.96 |  |
| [2H]C1([2H])N(c2ccc3c(c2)C(C)(C)C2=CC(=[N+]4C([2H])([2H])C([2H])([2H])C([2H])([2H])C4([2H])[2H])C=CC2=C3c2ccccc2C(=O)[O-])C([2H])([2H])C([2H])([2H])C1([2H])[2H] [compound 88] | 0.70 | 130,000 M^−1cm^−1 | 612 | 633 |  |  |  |  |  | 0.880 |  |
| [2H]C1([2H])N(c2ccc3c(c2)[Si](C)(C)C2=CC(=[N+]4C([2H])([2H])C([2H])([2H])C([2H])([2H])C4([2H])[2H])C=CC2=C3c2ccccc2C(=O)[O-])C([2H])([2H])C([2H])([2H])C1([2H])[2H] [compound 89, JFX650] | 0.53 | 17,600 M^−1cm^−1 | 650 | 667 |  |  |  |  |  |  |  |
| CN(c1ccccc1)c1ccc2c(-c3ccccc3C(=O)[O-])c3ccc(=[N+](C)c4ccccc4)cc-3oc2c1 [compound 90] |  | 16,000 M^−1cm^−1 | 549 |  |  |  |  |  |  | 0.296 |  |
| CC1CC(C)(C)Nc2cc3[o+]c4cc5c(cc4c(-c4ccccc4C(=O)[O-])c3cc21)C(C)CC(C)(C)N5 (centres unmarked) [compound 99, 2^−(2,2,4,8,10,10^−Hexamethyl-1,2,3,4,8,9,10,11-octahydropyrano[3,2^−g:5,6^−g′]diquinolin-13^−ium-6^−yl)benzoate] |  |  |  |  |  |  |  |  |  |  | Φf [3, 9]: 0.83; KL-Z ([7]; quinolinyl rhodamines): 6.30; ε [5, 9]: 112,000 M^−1cm^−1; λabs [5, 9]: 542 nm; λem [5, 9]: 564 nm |
| CC1CC(C)(C)Nc2cc3c(cc21)C(c1ccccc1C(=O)O)=c1cc2c(cc1[Si]3(C)C)=NC(C)(C)CC2C (centres unmarked) [compound 100, 2^−(2,2,4,8,10,10,13,13-Octamethyl-2,3,4,8,9,10,11,13-octahydrosilino[3,2^−g:5,6^−g]diquinolin-6^−ylium-6(1H)-yl)-benzoate] |  |  |  |  |  |  |  |  |  |  | Φf [3, 9]: 0.34; KL-Z ([7]; quinolinyl rhodamines): 0.0220; ε [5, 9]: 10,400 M^−1cm^−1; λabs [5, 9]: 638 nm; λem [5, 9]: 655 nm |
| CC1=CC(C)(C)Nc2cc3[o+]c4cc5c(cc4c(-c4ccccc4C(=O)[O-])c3cc21)C(C)=CC(C)(C)N5 [compound 101, 2^−(2,2,4,8,10,10^−Hexamethyl-1,2,10,11^−tetrahydropyrano[3,2-g:5,6^−g′]diquinolin-13^−ium-6^−yl)benzoate] |  |  |  |  |  |  |  |  |  |  | Φf [3, 9]: 0.68; KL-Z ([7]; quinolinyl rhodamines): 5.14; ε [5, 9]: 94,100 M^−1cm^−1; λabs [5, 9]: 573 nm; λem [5, 9]: 595 nm |
| CC1=CC(C)(C)N(C)c2cc3c(cc21)C(c1ccccc1C(=O)[O-])=c1cc2c(cc1O3)=[N+](C)C(C)(C)C=C2C [compound 103, 2^−(1,2,2,4,8,10,10,11-Octamethyl-1,2,10,11-tetrahydropyrano[3,2^−g:5,6^−g]diquinolin-13^−ium-6^−yl)benzoate] |  |  |  |  |  |  |  |  |  |  | Φf [3, 9]: 0.73; KL-Z ([7]; quinolinyl rhodamines): 4.44; ε [5, 9]: 95,200 M^−1cm^−1; λabs [5, 9]: 585 nm; λem [5, 9]: 610 nm |
| CN1CCc2cc3c(cc21)[Si](C)(C)c1cc2c(cc1=C3c1c(F)c(F)c(F)c(F)c1C(=O)[O-])CC[N+]=2C [compound 108, SiRF712] |  |  |  |  |  |  |  |  |  |  | Φf [3, 10]: 0.09; KL-Z ([7]; rhodamine derivatives): 1.97; ε [5, 10]: 98,800 M^−1cm^−1; λabs [5, 10]: 712 nm; λem [5, 10]: 735 nm |
| JF669 [compound 2] | 0.37 | 112,000 M^−1cm^−1 | 669 | 662 |  |  |  |  |  | 0.262 |  |
